From patent US8846909B2, “Bicyclic heteroaryl kinase inhibitors and methods of use” (University of Rochester, priority 2010, dated 2014)

Target: T1, MLK3 (Homo sapiens, UniProt Q16584)
T1 construct: purchased Dundee DU8313
Experiment: Radiometric filter plate MLK3 assay; note: 2 µM cold ATP (Km)
Assay type: biochemical
Settings: read-out: MK3 IC50
Experimental: After a twenty minute incubation, the reactions were washed through filter plates and read on a scintillation counter. Results are shown in Table 10 below, in which +++ indicates ≦0.1 μM, ++ indicates >0.1 μM and ≦1 μM, and + indicates >1 μM.

T1 sequence (Q16584 whole entry): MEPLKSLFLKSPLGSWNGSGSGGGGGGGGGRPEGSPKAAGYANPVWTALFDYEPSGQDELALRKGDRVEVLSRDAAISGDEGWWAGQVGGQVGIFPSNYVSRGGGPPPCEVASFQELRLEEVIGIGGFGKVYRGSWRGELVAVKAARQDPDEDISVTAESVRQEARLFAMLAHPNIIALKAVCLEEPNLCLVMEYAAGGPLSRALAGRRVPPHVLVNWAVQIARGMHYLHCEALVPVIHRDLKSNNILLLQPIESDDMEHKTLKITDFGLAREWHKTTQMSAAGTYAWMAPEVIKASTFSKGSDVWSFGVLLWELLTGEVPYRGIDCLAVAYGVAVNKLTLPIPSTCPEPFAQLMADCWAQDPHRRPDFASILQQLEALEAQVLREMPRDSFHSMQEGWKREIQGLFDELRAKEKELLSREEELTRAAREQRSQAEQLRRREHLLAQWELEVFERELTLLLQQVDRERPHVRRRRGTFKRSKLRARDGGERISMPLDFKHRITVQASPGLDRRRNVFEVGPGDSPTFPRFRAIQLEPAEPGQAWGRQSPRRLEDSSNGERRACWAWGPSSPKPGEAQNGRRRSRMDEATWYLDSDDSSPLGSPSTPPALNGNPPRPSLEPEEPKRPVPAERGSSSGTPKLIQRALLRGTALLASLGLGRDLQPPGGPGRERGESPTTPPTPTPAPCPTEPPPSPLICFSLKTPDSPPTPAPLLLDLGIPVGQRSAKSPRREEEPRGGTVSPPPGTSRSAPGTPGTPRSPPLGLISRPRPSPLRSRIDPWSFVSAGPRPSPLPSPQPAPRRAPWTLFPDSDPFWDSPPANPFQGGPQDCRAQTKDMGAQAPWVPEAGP

SMILES	IC50
COc1ccc(-n2c(=O)[nH]c3ncc(-c4ccncc4)nc32)cc1 [Example 71, 1-(4-methoxyphenyl)-6-(pyridin-4-yl)-1H-imidazo[4,5-b]pyrazin-2(3H)-one]	> 1000 nM
COc1cc(-c2cnc3[nH]c(=O)n(-c4ccc5[nH]c(C)cc5c4)c3n2)cc(OC)c1OC [Example 72, 1-(2-methyl-1H-indol-5-yl)-6-(3,4,5-trimethoxyphenyl)-1H-imidazo[4,5-b]pyrazin-2(3H)-one]	< 100 nM
Cc1cc2cc(-n3c(=O)[nH]c4ncc(-c5cc(Cl)cc(Cl)c5)nc43)ccc2[nH]1 [Example 73, 6-(3,5-dichlorophenyl)-1-(2-methyl-1H-indol-5-yl)-1H-imidazo[4,5-b]pyrazin-2(3H)-one]	> 1000 nM
COc1cc(-c2cnc3[nH]c(=O)n(C4CCCC4)c3n2)cc(OC)c1OC [Example 74, 1-cyclopentyl-6-(3,4,5-trimethoxyphenyl)-1H-imidazo[4,5-b]pyrazin-2(3H)-one]	< 100 nM
COc1ccc(-c2cnc3[nH]c(=O)n(C4CCCC4)c3n2)cc1OC [Example 75, 1-cyclopentyl-6-(3,4-dimethoxyphenyl)-1H-imidazo[4,5-b]pyrazin-2(3H)-one]	> 1000 nM
O=c1[nH]c2ncc(-c3ccncc3)nc2n1C1CCCC1 [Example 77, 1-cyclopentyl-6-(pyridin-4-yl)-1H-imidazo[4,5-b]pyrazin-2(3H)-one]	> 1000 nM
O=c1[nH]c2ncc(-c3cc(Cl)cc(Cl)c3)nc2n1CC1CC1 [Example 80, 1-(cyclopropylmethyl)-6-(3,5-dichlorophenyl)-1H-imidazo[4,5-b]pyrazin-2(3H)-one]	> 1000 nM
O=c1[nH]c2ncc(-c3ccc(O)cc3)nc2n1CC1CC1 [Example 81, 1-(cyclopropylmethyl)-6-(4-hydroxyphenyl)-1H-imidazo[4,5-b]pyrazin-2(3H)-one]	> 1000 nM
O=c1[nH]c2ncc(-c3ccncc3)nc2n1CC1CC1 [Example 82, 1-(cyclopropylmethyl)-6-(pyridin-4-yl)-1H-imidazo[4,5-b]pyrazin-2(3H)-one]	> 1000 nM
Cc1cc2cc(-n3c(=O)[nH]c4ncc(-c5ccncc5)nc43)ccc2[nH]1 [Example 85, 1-(2-methyl-1H-indol-5-yl)-6-(pyridin-4-yl)-1H-imidazo[4,5-b]pyrazin-2(3H)-one]	> 1000 nM
O=c1[nH]c2ncc(-c3ccc(N4CCOCC4)cc3)nc2n1CC1CC1 [Example 86, 1-(cyclopropylmethyl)-6-(4-morpholinophenyl)-1H-imidazo[4,5-b]pyrazin-2(3H)-one]	> 1000 nM
COc1ccc(-c2cnc3[nH]c(=O)n(-c4ccc5[nH]ncc5c4)c3n2)cc1OC [Example 87, 6-(3,4-dimethoxyphenyl)-1-(1H-indazol-5-yl)-1H-imidazo[4,5-b]pyrazin-2(3H)-one]	> 1000 nM
O=c1[nH]c2ncc(-c3ccncc3)nc2n1-c1ccc2[nH]ncc2c1 [Example 88, 1-(1H-indazol-5-yl)-6-(pyridin-4-yl)-1H-imidazo[4,5-b]pyrazin-2(3H)-one]	> 1000 nM
O=c1[nH]c2ncc(-c3ccc(N4CCOCC4)cc3)nc2n1-c1ccc2[nH]ncc2c1 [Example 89, 1-(1H-indazol-5-yl)-6-(4-morpholinophenyl)-1H-imidazo[4,5-b]pyrazin-2(3H)-one]	> 1000 nM
O=c1[nH]c2ncc(-c3ccc(O)cc3)nc2n1-c1ccc2cn[nH]c2c1 [Example 92, 6-(4-hydroxyphenyl)-1-(1H-indazol-6-yl)-1H-imidazo[4,5-b]pyrazin-2(3H)-one]	> 1000 nM
COc1cc(OC)c(-c2cnc3[nH]c(=O)n(C4CCCC4)c3n2)c(OC)c1 [Example 94, 1-cyclopentyl-6-(2,4,6-trimethoxyphenyl)-1H-imidazo[4,5-b]pyrazin-2(3H)-one]	> 1000 nM
Cc1cc(C)cc(-c2cnc3[nH]c(=O)n(-c4ccc5cn[nH]c5c4)c3n2)c1 [Example 95, 6-(3,5-dimethylphenyl)-1-(1H-indazol-6-yl)-1H-imidazo[4,5-b]pyrazin-2(3H)-one]	> 1000 nM
O=c1[nH]c2ncc(-c3ccncc3)nc2n1-c1ccc2scnc2c1 [Example 98, 1-(benzo[d]thiazol-5-yl)-6-(pyridin-4-yl)-1H-imidazo[4,5-b]pyrazin-2(3H)-one]	> 1000 nM
Cc1cc(C)cc(-c2cnc3[nH]c(=O)n(-c4ccc5scnc5c4)c3n2)c1 [Example 99, 1-(benzo[d]thiazol-5-yl)-6-(3,5-dimethylphenyl)-1H-imidazo[4,5-b]pyrazin-2(3H)-one]	> 1000 nM
O=c1[nH]c2ncc(-c3ccc(N4CCOCC4)cc3)nc2n1-c1ccc2scnc2c1 [Example 100, 1-(benzo[d]thiazol-5-yl)-6-(4-morpholinophenyl)-1H-imidazo[4,5-b]pyrazin-2(3H)-one]	> 1000 nM
COc1cc(-c2cnc3[nH]c(=O)n(C4CCc5ccccc54)c3n2)cc(OC)c1OC (centres unmarked) [Example 101, 1-(2,3-dihydro-1H-inden-1-yl)-6-(3,4,5-trimethoxyphenyl)-1H-imidazo[4,5-b]pyrazin-2(3H)-one]	> 1000 nM
COc1cc(-c2cnc3[nH]c(=O)n(-c4ccc5[nH]cnc5c4)c3n2)cc(OC)c1OC [Example 102, 1-(1H-benzo[d]imidazol-5-yl)-6-(3,4,5-trimethoxyphenyl)-1H-imidazo[4,5-b]pyrazin-2(3H)-one]	< 100 nM

More lines, now with the values ahead:

IC50	SMILES
> 1000 nM	COc1cc(-c2cnc3[nH]c(=O)n(-c4ccc(N5CCOCC5)nc4)c3n2)cc(OC)c1OC [Example 109, 1-(6-morpholinopyridin-3-yl)-6-(3,4,5-trimethoxyphenyl)-1H-imidazo[4,5-b]pyrazin-2(3H)-one]
< 100 nM	COc1cc(-c2cnc3[nH]c(=O)n(C4Cc5ccccc5C4)c3n2)cc(OC)c1OC [Example 110, 1-(2,3-dihydro-1H-inden-2-yl)-6-(3,4,5-trimethoxyphenyl)-1H-imidazo[4,5-b]pyrazin-2(3H)-one]
< 100 nM	COc1cc(-c2cnc3[nH]c(=O)n(-c4cnc5[nH]ccc5c4)c3n2)cc(OC)c1OC [Example 112, 1-(1H-pyrrolo[2,3-b]pyridin-5-yl)-6-(3,4,5-trimethoxyphenyl)-1H-imidazo[4,5-b]pyrazin-2(3H)-one]
< 100 nM	COc1cc(-c2cnc3[nH]c(=O)n(-c4ccc5cc[nH]c5c4)c3n2)cc(OC)c1OC [Example 113, 1-(1H-indol-6-yl)-6-(3,4,5-trimethoxyphenyl)-1H-imidazo[4,5-b]pyrazin-2(3H)-one]
> 1000 nM	Nc1ccc(-c2cnc3[nH]c(=O)n(C4CCCC4)c3n2)cn1 [Example 117, 6-(6-aminopyridin-3-yl)-1-cyclopentyl-1H-imidazo[4,5-b]pyrazin-2(3H)-one]
> 1000 nM	COc1cc(-c2nc3c(nc2Cl)[nH]c(=O)n3CC2CC2)cc(OC)c1OC [Example 119, 5-chloro-1-(cyclopropylmethyl)-6-(3,4,5-trimethoxyphenyl)-1H-imidazo[4,5-b]pyrazin-2(3H)-one]
> 1000 nM	COc1cc(-c2cnc3c(c2)C(CC2CC2)(CC2CC2)C(=O)N3)cc(OC)c1OC [Example 122, 3,3-bis(cyclopropylmethyl)-5-(3,4,5-trimethoxyphenyl)-1H-pyrrolo[2,3-b]pyridin-2(3H)-one]
100 to 1000 nM	COc1cc(-c2cnc3c(c2)C(CC2CC2)C(=O)N3)cc(OC)c1OC (centres unmarked) [Example 123, 3-(cyclopropylmethyl)-5-(3,4,5-trimethoxyphenyl)-1H-pyrrolo[2,3-b]pyridin-2(3H)-one]
100 to 1000 nM	COc1cc(-c2cnc3[nH]c(=O)n(-c4ccc5[nH]ccc5c4)c3c2)cc(OC)c1OC [Example 124, 1-(1H-indol-5-yl)-6-(3,4,5-trimethoxyphenyl)-1H-imidazo[4,5-b]pyridin-2(3H)-one]
> 1000 nM	COc1cc(-c2cnc3[nH]c(=O)n(CC4CC4)c3c2)cc(OC)c1OC [Example 125, 1-(cyclopropylmethyl)-6-(3,4,5-trimethoxyphenyl)-1H-imidazo[4,5-b]pyridin-2(3H)-one]
> 1000 nM	COc1cc(-c2cnc3ncn(-c4ccc5[nH]ccc5c4)c3n2)cc(OC)c1OC [Example 126, 1-(1H-indol-5-yl)-6-(3,4,5-trimethoxyphenyl)-1H-imidazo[4,5-b]pyrazine]
> 1000 nM	COc1cc(-c2cnc3[nH]c(=S)n(CC4CC4)c3n2)cc(OC)c1OC [Example 127, 1-(cyclopropylmethyl)-6-(3,4,5-trimethoxyphenyl)-1H-imidazo[4,5-b]pyrazine-2(3H)-thione]
> 1000 nM	COc1cc(-c2cnc3c(c2)C(=Cc2ccccc2)C(=O)N3)cc(OC)c1OC [Example 130, 3-benzylidene-5-(3,4,5-trimethoxy-phenyl)-1,3-dihydro-pyrrolo[2,3-b]pyridin-2-one]
100 to 1000 nM	COc1cc(-c2cnc3c(c2)C(=Cc2ccc(C(N)=O)cc2)C(=O)N3)cc(OC)c1OC [Example 131, 4-[2-oxo-5-(3,4,5-trimethoxy-phenyl)-1,2-dihydro-pyrrolo[2,3-b]pyridin-3-ylidenemethyl]-benzamide]
> 1000 nM	COc1cc(-c2cnc3c(c2)C(=Cc2cccc(C(N)=O)c2)C(=O)N3)cc(OC)c1OC [Example 132, 3-[2-oxo-5-(3,4,5-trimethoxy-phenyl)-1,2-dihydro-pyrrolo[2,3-b]pyridin-3-ylidenemethyl]-benzamide]
> 1000 nM	COc1cc(-c2cnc3c(c2)C(=Cc2ccc(C#N)cc2)C(=O)N3)cc(OC)c1OC [Example 133, 4-[2-oxo-5-(3,4,5-trimethoxy-phenyl)-1,2-dihydro-pyrrolo[2,3-b]pyridin-3-ylidenemethyl]-benzonitrile]
> 1000 nM	COc1cc(-c2cnc3c(c2)C(Cc2cccnc2)C(=O)N3)cc(OC)c1OC (centres unmarked) [Example 135, 3-pyridin-3-ylmethyl-5-(3,4,5-trimethoxy-phenyl)-1,3-dihydro-pyrrolo[2,3-b]pyridin-2-one]
> 1000 nM	COc1cc(-c2cnc3c(c2)C(Cc2ccncc2)C(=O)N3)cc(OC)c1OC (centres unmarked) [Example 136, 3-pyridin-4-ylmethyl-5-(3,4,5-trimethoxy-phenyl)-1,3-dihydro-pyrrolo[2,3-b]pyridin-2-one]
> 1000 nM	COc1cc(-c2cnc3c(c2)C(Cc2ccccc2)C(=O)N3)cc(OC)c1OC (centres unmarked) [Example 137, 3-benzyl-5-(3,4,5-trimethoxy-phenyl)-1,3-dihydro-pyrrolo[2,3-b]pyridin-2-one]
